Measurements: patent US7960380B2, “Non-anilinic derivatives of isothiazol-3(2H)-one 1,1-dioxides as liver X receptor modulators” (AstraZeneca AB, priority 2005, dated 2011)
pEC50: −log10 of the molar value.

Key:
[1] = target: T1, human LXRalpha Ligand Binding Domain (amino acid 205-447) (Homo sapiens, UniProt Q13133); assay: Co-activator recruitment assay (LXRalpha); format: biochemical; conditions: LXRα; SRC-1 peptide recruitment, time-resolved fluorescence; read-out: EC50 for LXRα in the coactivator recruitment assay
T1 construct: human LXRalpha (amino acid 205-447); made in house; host or cells: E. coli
T1 sequence (Q13133 205-447): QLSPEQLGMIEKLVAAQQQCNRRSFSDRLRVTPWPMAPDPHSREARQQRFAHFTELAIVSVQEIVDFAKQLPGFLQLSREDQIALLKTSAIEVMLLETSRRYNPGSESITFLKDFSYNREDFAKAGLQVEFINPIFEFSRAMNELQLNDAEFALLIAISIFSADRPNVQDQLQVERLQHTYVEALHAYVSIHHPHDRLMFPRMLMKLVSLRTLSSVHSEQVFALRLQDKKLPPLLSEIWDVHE
Text: The Ligand Binding Domain (LBD) of human LXRalpha (amino acid 205-447) and LXRbeta (amino acid 216-461) was produced by recombinant techniques in E coli. A fragment of the human Steroid Receptor Co-Activator-1 (SRC-1) was produced as a synthetic peptide. An anti-6×His-antibody coupled with Europium (Eu^3+) was used to recognize the His-tag on the LXR-LBD and Allophycocyanin (APC) coupled to streptavidin was used to recognize the biotinylated SRC-1. Agonist binding to LXRalpha or LXRbeta enhances the affinity of LXR towards SRC-1 and thereby brings Eu^3+ and APC in close proximity. Eu^3+ is excited at 337 nm and emitts light at 620 nm. This emission, when in close proximity, excites APC to emit light at 665 nm.
Compounds (10 mM) in DMSO were diluted (1/3) in DMSO in 10 concentrations. This dilution plates were further diluted in buffer {20 mM [Tris(hydroxymethyl)aminomethane] pH 7.5, 0.125% CHAPS {3-[(3-Cholamidopropyl)dimethylammonio]-1-propanesulfonate}, 2 mM DTT (Dithiothreitol) and 0.05% BSA (Bovine Serum Albumin)} in order to reduce DMSO concentration, 0.5 μl to 13.5 μl. To this, 6 μl assay mix was added, giving an maximal assay concentration of 83 μM, and the plates (384-well V-groove plates) were incubated at room temperature for 60 to 80 min. […] Time-resolved fluorescence readings were done in a Wallac Victor reader at 665 nm followed by reading at 615 nm. […]

[2] = target: T2, human LXRalpha ligand binding domain (GAL4 fusion) (Homo sapiens, UniProt Q13133); assay: Transactivation (reporter gene) assay in U2/OS cells (LXRalpha); format: cell-based; conditions: LXRα, GAL4-LXR LBD luciferase reporter
T2 construct: human LXRalpha (amino acid 205-447); expressed in transfected cells; host or cells: U2/OS osteosarcoma cells (electroporated with pSGGAL-LXRalpha)
T2 sequence (Q13133 205-447): T1 sequence (Q13133 205-447)
Procedure: Expression vectors were prepared by inserting the ligand binding domain cDNA (complementary DNA) of human LXRalpha (amino acid 205-447) and LXRbeta (amino acid 216-461) in frame with, 3′ to the yeast GAL4 transcription factor DNA binding domain and the nuclear localization signal from the T-antigen of Polyoma Virus in the eucaryotic expression vector pSG5 (Stratagene). The resulting expression vectors pSGGAL-LXRalpha and pSGGAL-LXRbeta were used in cotransfection experiments together with the pGL3 luciferase reporter plasmid containing a minimal SV40 promoter (Promega) and five copies of the UAS GAL4 recognition site. 2.5 μg pSGGAL-LXRalpha or beta were mixed with 25 μg pGL3 5×UAS and 22.5 μg pBluscript (Stratagene) in 0.95 mL ice cold PBS containing approx. 4-9 milj. U2/OS osteosarcoma cells. After a five minute incubation on ice the cell/DNA mixture was electroporated in 0.4 cm cuvettes at 960 μF, 230 V using a BioRad electroporator and diluted to 0.32 milj cells/mL in complete DMEM [Dulbecco's Modified Eagle Medium w/o phenol red, (Gibco 11880-028) including 10% FBS (Foetal Bovine Serum), 1% PEST (Penicillin Streptomycin), 20 mM Hepes, 2 mM L-Glutamine and 0.36% Glucose Gibco 31966-021] medium. […] Luciferase activity was measured as Luminescence in the Wallac Victor reader after 15 min. incubation at room temperature. […]

Row | SMILES | pEC50 [1] | pEC50 [2]
1 | CCCCCCNC1=C(c2ccccc2)S(=O)(=O)N(CCCC)C1=O [Example 6, 2-Butyl-4-(hexylamino)-5-phenylisothiazol-3(2H)-one 1,1-dioxide] | 6.24 | –
2 | CC(C)N1C(=O)C(NC2CCN(CCC#N)CC2)=C(c2ccccc2)S1(=O)=O [Example 10, 3-{4-[(2-Isopropyl-1,1-dioxido-3-oxo-5-phenyl-2,3-dihydroisothiazol-4-yl)amino]piperidin-1-yl}propanenitrile] | 5.85 | –
3 | CCCCN1C(=O)C(NCCCOc2cccc(NC(C)=O)c2)=C(c2ccccc2)S1(=O)=O [Example 7, N-(3-{3-[(2-Butyl-1,1-dioxido-3-oxo-5-phenyl-2,3-dihydroisothiazol-4-yl)amino]propoxy}phenyl)acetamide] | – | 6.57
4 | O=C1C(NCCCCc2ccccc2)=C(c2ccccc2)S(=O)(=O)N1C1CCCC1 [Example 2, 2-Cyclopentyl-5-phenyl-4-[(4-phenylbutyl)amino]isothiazol-3(2H)-one 1,1-dioxide] | – | 5.87
